Tests used:
[1] = Agonist activity at human GPR120 long isoform transfected in CHO-K1 cells by beta-arrestin recruitment assay; type: cell-based
[2] = Agonist activity at human GPR120 short isoform transfected in CHO-K1 cells by beta-arrestin recruitment assay; type: cell-based
[3] = Agonist activity at human GPR120 long isoform transfected in HEK293 cells assessed as calcium flux by FLIPR assay; type: cell-based
Mus musculus [4] = assay: Antidiabetic activity in DIO mouse assessed as glucose level at 10 mg/kg measured from -30 to 90 mins by oral glucose tolerance test; type: functional
Mus musculus [5] = assay: Antidiabetic activity in C57bl6 mouse assessed as glucose level at 3 mg/kg by oral glucose tolerance test; type: functional
Mus musculus [6] = assay: Antidiabetic activity in C57bl6 mouse assessed as glucose level at 3 mg/kg by intraperitoneal glucose tolerance test; type: functional
Mus musculus [7] = assay: Antidiabetic activity in C57bl6 mouse assessed as glucose level at 30 mg/kg by intraperitoneal glucose tolerance test; type: functional
Mus musculus [8] = assay: Antidiabetic activity in C57bl6 mouse assessed as glucose level at 10 mg/kg by intraperitoneal glucose tolerance test; type: functional
[9] = Agonist activity at human GPR120 short isoform transfected in HEK293 cells assessed as calcium flux by FLIPR assay; type: cell-based

SMILES	EC50 [1] [nM]	EC50 [2] [nM]	EC50 [3] [nM]	Activity (Mus musculus [4]) [%]	Activity (Mus musculus [5]) [%]	Activity (Mus musculus [6]) [%]	Activity (Mus musculus [7]) [%]	Activity (Mus musculus [8]) [%]	EC50 [9] [nM]
Cc1ccccc1-c1snc(Cl)c1COc1c(F)cc(CCC(=O)O)cc1F	322	990	344	–	–	–	–	–	–
O=C(O)CCc1cc(F)c(OCc2c(C3CCCC3)nsc2C(F)(F)F)c(F)c1	278	139	37	-0.52	-37	-14	–	–	–
Cc1c(CCC(=O)O)ccc(OCc2sc(F)cc2-c2ccc(Cl)cc2)c1C	–	83	49	–	–	–	–	–	–
Cc1c(CCC(=O)O)ccc(OCc2c(-c3ccc(Cl)cc3)nsc2C(F)(F)F)c1C	141	100	155	–	–	-34	-53	-61	–
CCc1ccc(-c2cc(F)sc2COc2ccc(CCC(=O)O)c(C)c2C)cc1	218	205	24	–	–	–	–	–	–
OCCCc1cc(F)c(OCc2c(-c3ccc(Cl)cc3F)nsc2C(F)(F)F)c(F)c1	–	80	–	–	–	–	–	–	139

Reference: ChEMBL document CHEMBL3751700, “Therapeutic Potential of GPR120 Agonists for the Treatment of Type 2 Diabetes” (ACS Med Chem Lett, 2015)
